Measured values published in patent US11191765B2, “Heterocyclic compounds for the inhibition of PASK” (BioEnergenix LLC, priority 2012, dated 2021).

biological target: PASK (UniProt #Q96RG2; human recombinant N-terminal GST tagged construct, residues 879-1323) (Homo sapiens (Human), UniProt Q96RG2); assay: PASK ATP Radiochemical Assay; type: biochemical; settings: radiochemical 33P-ATP assay, Myelin Basic Protein substrate, 120 min at room temperature; read-out: IC50 Kinase Domain
Experimental: Biochemical Assay for hPASK Activity
PASK ATP Radiochemical Assay
Purified PASK (UniProt #Q96RG2; human recombinant N-terminal GST tagged construct, residues 879-1323) from insect cells (final concentration 5 nM) is added to freshly prepared Base Reaction Buffer containing 20 mM HEPES (pH 7.5), 10 mM MgCl2, 1 mM EGTA, 0.02% Brij35, 0.02 mg/ml BSA, 0.1 mM Na3VO4, 2 mM DTT, 1% DMSO and Myelin Basic Protein (20 μM final). Test compounds in DMSO are then added and the mixture, followed by delivery of ^33P-ATP (specific activity 0.01 μCi/μl final) to initiate the reaction. The kinase reaction is incubated for 120 min at room temperature. The entire reaction mixture is washed through onto a P81 Phosphocellulose paper and washed three times for 10 minutes in 75 mM phosphoric acid and once in methanol prior to drying and scintillation counting.

Sequence of PASK (Q96RG2 879-1323, change not shown): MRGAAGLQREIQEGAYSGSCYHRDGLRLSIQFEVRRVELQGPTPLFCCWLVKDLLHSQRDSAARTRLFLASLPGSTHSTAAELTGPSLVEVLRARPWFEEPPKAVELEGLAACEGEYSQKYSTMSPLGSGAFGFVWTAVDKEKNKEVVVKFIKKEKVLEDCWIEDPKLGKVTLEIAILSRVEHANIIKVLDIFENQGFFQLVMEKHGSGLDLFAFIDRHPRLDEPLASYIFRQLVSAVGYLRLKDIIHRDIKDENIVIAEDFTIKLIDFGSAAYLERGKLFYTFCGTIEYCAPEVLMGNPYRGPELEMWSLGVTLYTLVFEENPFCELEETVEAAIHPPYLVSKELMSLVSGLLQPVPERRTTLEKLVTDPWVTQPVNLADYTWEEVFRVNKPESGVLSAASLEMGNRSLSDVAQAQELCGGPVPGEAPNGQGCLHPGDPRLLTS

IC50, ≤ 10 µM:
COc1cc(-c2cc(=O)n3nc(-c4ccc(Cl)cc4)nc3[nH]2)ccc1Cl [Example 8, 5-(4-Chloro-3-methoxyphenyl)-2-(4-chlorophenyl)-[1,2,4]triazolo[1,5-a]pyrimidin-7(4H)-one]
O=c1cc(-c2ccc3c(c2)OCO3)[nH]c2nc(-c3ccc(Cl)cc3)nn12 [Example 15, 5-(Benzo[d][1,3]dioxol-5-yl)-2-(4-chlorophenyl)-[1,2,4]triazolo[1,5-a]pyrimidin-7(4H)-one]
COc1ccccc1-c1cc(=O)n2nc(-c3ccccc3)nc2[nH]1 [Example 30, 5-(2-Methoxyphenyl)-2-phenyl-[1,2,4]triazolo[1,5-a]pyrimidin-7(4H)-one]
O=c1cc(-c2ccccc2)[nH]c2nc(-c3ccccc3)nn12 [Example 31, 2,5-Diphenyl-[1,2,4]triazolo[1,5-a]pyrimidin-7(4H)-one]
COc1ccc(-c2cc(=O)n3nc(-c4ccccc4)nc3[nH]2)cc1 [Example 32, 5-(4-Methoxyphenyl)-2-phenyl-[1,2,4]triazolo[1,5-a]pyrimidin-7(4H)-one]
COc1cccc(-c2cc(=O)n3nc(-c4ccccc4)nc3[nH]2)c1 [Example 33, 5-(3-Methoxyphenyl)-2-phenyl-[1,2,4]triazolo[1,5-a]pyrimidin-7(4H)-one]
COc1ccc(-c2nc3[nH]c(-c4ccccc4)cc(=O)n3n2)cc1 [Example 35, 2-(4-Methoxyphenyl)-5-phenyl-[1,2,4]triazolo[1,5-a]pyrimidin-7(4H)-one]
O=c1cc(-c2ccccc2)[nH]c2nc(-c3ccccc3Cl)nn12 [Example 36, 2-(2-Chlorophenyl)-5-phenyl-[1,2,4]triazolo[1,5-a]pyrimidin-7(4H)-one]
COc1ccc(-c2cc(=O)n3ncnc3[nH]2)cc1OC [Example 37, 5-(3,4-Dimethoxyphenyl)-[1,2,4]triazolo[1,5-a]pyrimidin-7(4H)-one]
COc1ccc(-c2cc(=O)n3ncnc3[nH]2)cc1 [Example 38, 5-(4-Methoxyphenyl)-[1,2,4]triazolo[1,5-a]pyrimidin-7(4H)-one]

biological target: PASK (Invitrogen) (Homo sapiens (Human), UniProt Q96RG2); assay: PAS Kinase FRET Assay; type: biochemical; settings: TR-FRET (665 nm/615 nm), Ulight-peptide substrate, 2 hours at 25° C.; read-out: IC50 Kinase Domain
Source text: The aim of the FRET assay is to determine the inhibition potential of test compounds on targeted kinase. This assay platform provides a homogenous screening method for measuring kinase activity by quantitating the amount of phospho-substrate in solution following a kinase reaction.
In the presence of kinase and ATP, the Ulight-peptide is phosphorylated and captured by an anti-phospho-substrate antibody, which brings the Eu chelate donor and Ulight acceptor dyes into close proximity. Upon excitation at 340 nm, the Eu chelate transfers its energy to the Ulight dye, resulting in a fluorescent light emission at 665 nm.
Titration of kinase at 1 mM ATP was achieved via the following protocol. After making serial three-fold dilutions of PASK (Invitrogen) in reaction buffer across the plate; 5 μl of kinase dilution and 5 μl substrate/ATP mix were added to the wells of the white Optiplate-384 (PerkinElmer). The contents of the plate were and incubated at RT for 1 h. The reaction was stopped by adding 5 μl of stop solution to each test well followed by mixing and incubation at RT for 10 minutes. 5 μl of detection mix (detection antibody diluted in detection buffer) was added; the contents of the plate were mixed and then incubated in the dark for 1 hour at RT. The signal was recorded at TR-FRET mode (665 nm/615 nm). The results were graphed to calculate the EC50.
Titration of ATP at the EC50 concentration of kinase to determine ATP Km,app. was performed using the following method. After making serial dilutions of ATP (Invitrogen), 5 μl of ATP dilution and 5 μl substrate/kinase mix were added to the wells of the white Optiplate-384 (PerkinElmer). The contents of the plate were and incubated at RT for 1 h. The reaction was stopped by adding 5 μl of stop solution to each test well followed by mixing and incubation at RT for 10 minutes. 5 μl of detection mix (detection antibody diluted in detection buffer) was added; the contents of the plate were mixed and then incubated in the dark for 1 hour at RT. The signal was recorded at TR-FRET mode (665 nm/615 nm). The results were graphed to calculate the EC50 as the ATP Km,app.
Compound screening was done via the following method. 10 mM stock solution of test compound in DMSO was prepared by dissolving test compound in DMSO at RT for 1 hour, and then sonicating at 100% output for 8 minutes. If compound is not soluble under this condition, it was diluted to 3 mM. Kinase reaction buffer was prepared containing 10 mM MgCl2, 50 mM HEPES, 1 mM EGTA, 0.01% TWEEN-20, 2 mM DTT. Serial dilutions of the test compounds were prepared at 4×final assay concentrations using Freedom EVO200® dispensing system as follows: 12×10^−5 M, 4×10^−5 M, 1.33×10^−5 M, 4.44×10^−6 M, 1.48×10^−6 M, 4.92×10^−7 M, 1.65×10^−7 M, 5.48×10^−7 M, 1.82×10^−8 M, 6.09×10^−9, 2.03×10^−9 M. Test compounds (2.5 μl at 4×the final assay concentration) was added to wells using Freedom EVO200® dispensing system. As a positive control, 2.5 μl of positive compound was added to assay wells, and 2.5 μl of DMSO to assay wells as vehicle control. Kinase solution was prepared in reaction buffer at 2×final assay concentration. Kinase solution (5 μl) was added to each well of the assay plate. The substrate and ATP solution was prepared in kinase reaction buffer at 4×final assay concentration. The kinase reaction was started by adding 2.5 μl of substrate+ATP mix solution to each well of the assay plate. The plate is mixed on a plate shaker; then covered and allowed to react for 2 hours in the dark at 25° C. without shaking. The reaction was stopped by adding 5 μl of stop solution to each test well followed by mixing and incubation at RT for 10 minutes in the dark. 5 μl of detection mix (detection antibody diluted in detection buffer) was added; the contents of the plate were mixed and then incubated in the dark for 1 hour at RT. The signal was recorded at TR-FRET mode (665 nm/615 nm).

Sequence of PASK (Invitrogen) (Q96RG2 999-1251): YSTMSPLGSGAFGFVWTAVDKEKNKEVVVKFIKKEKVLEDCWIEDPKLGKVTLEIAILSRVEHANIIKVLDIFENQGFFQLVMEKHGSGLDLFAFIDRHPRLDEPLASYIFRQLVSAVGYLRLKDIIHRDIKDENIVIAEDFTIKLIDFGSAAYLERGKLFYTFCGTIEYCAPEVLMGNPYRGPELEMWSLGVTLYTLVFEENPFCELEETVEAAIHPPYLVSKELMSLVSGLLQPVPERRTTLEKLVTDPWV

IC50, ≤ 10 µM:
COc1cc(-c2cc(=O)n3nc(-c4ccc(Cl)cc4)nc3[nH]2)ccc1Cl [Example 8, 5-(4-Chloro-3-methoxyphenyl)-2-(4-chlorophenyl)-[1,2,4]triazolo[1,5-a]pyrimidin-7(4H)-one]
O=c1cc(-c2ccc3c(c2)OCO3)[nH]c2nc(-c3ccc(Cl)cc3)nn12 [Example 15, 5-(Benzo[d][1,3]dioxol-5-yl)-2-(4-chlorophenyl)-[1,2,4]triazolo[1,5-a]pyrimidin-7(4H)-one]
CCn1ncc2cc(-c3cc(=O)n4nc(-c5ccc(F)cc5)nc4[nH]3)ccc21 [Example 21, 5-(1-Ethyl-1H-indazol-5-yl)-2-(4-fluorophenyl)-[1,2,4]triazolo[1,5-a]pyrimidin-7(4H)-one]
O=c1cc(-c2ccc3nn[nH]c3c2)[nH]c2nc(-c3ccccc3Cl)nn12 [Example 22, 5-(1H-Benzo[d][1,2,3]triazol-6-yl)-2-(2-chlorophenyl)-[1,2,4]triazolo[1,5-a]pyrimidin-7(4H)-one]
Cc1ccccc1-c1nc2[nH]c(-c3ccc4nn[nH]c4c3)cc(=O)n2n1 [Example 23, 5-(1H-benzo[d][1,2,3]triazol-6-yl)-2-o-tolyl-[1,2,4]triazolo[1,5-a]pyrimidin-7(4H)-one]
NC(=O)c1nc2[nH]c(-c3ccc4nn[nH]c4c3)cc(=O)n2n1 [Example 24, 5-(1H-benzo[d][1,2,3]triazol-6-yl)-7-oxo-4,7-dihydro-[1,2,4]triazolo[1,5-a]pyrimidine-2-carboxamide]
CCn1ncc2cc(-c3cc(=O)n4nc(-c5ccccc5Cl)nc4[nH]3)ccc21 [Example 25, 2-(2-chlorophenyl)-5-(1-ethyl-1H-indazol-5-yl)-[1,2,4]triazolo[1,5-a]pyrimidin-7(4H)-one]
COc1ccc(-c2cc(=O)n3ncnc3[nH]2)cc1 [Example 26, 5-(4-Methoxyphenyl)-[1,2,4]triazolo[1,5-a]pyrimidin-7(4H)-one]
COc1ccc(-c2cc(=O)n3nc(C)nc3[nH]2)cc1 [Example 27, 5-(4-Methoxyphenyl)-2-methyl-[1,2,4]triazolo[1,5-a]pyrimidin-7(4H)-one]
O=c1cc(-c2ccc3c(c2)OCCO3)[nH]c2nc(-c3ccccn3)nn12 [Example 28, 5-(2,3-Dihydrobenzo[b][1,4]dioxin-6-yl)-2-(pyridin-2-yl)-[1,2,4]triazolo[1,5-a]pyrimidin-7(4H)-one]
O=c1cc(-c2ccc3c(c2)OCO3)[nH]c2nc(-c3ccccn3)nn12 [Example 29, 5-(Benzo[d][1,3]dioxol-5-yl)-2-(pyridin-2-yl)-[1,2,4]triazolo[1,5-a]pyrimidin-7(4H)-one]
O=c1cc(-c2ccc3[nH]nnc3c2)[nH]c2nc(-c3ccc(Cl)cc3)nn12 [Example 39, 5-(1H-Benzo[d][1,2,3]triazol-5-yl)-2-(4-chlorophenyl)-[1,2,4]triazolo[1,5-a]pyrimidin-7(4H)-one]
O=c1cc(-c2ccc3[nH]nnc3c2)[nH]c2nc(-c3ccc(F)cc3)nn12 [Example 40, 5-(1H-Benzo[d][1,2,3]triazol-5-yl)-2-(4-fluorophenyl)-[1,2,4]triazolo[1,5-a]pyrimidin-7(4H)-one]
O=c1cc(-c2ccc3[nH]nnc3c2)[nH]c2nc(-c3ccccc3)nn12 [Example 41, 5-(1H-Benzo[d][1,2,3]triazol-5-yl)-2-phenyl-[1,2,4]triazolo[1,5-a]pyrimidin-7(4H)-one]
CCn1ncc2cc(-c3cc(=O)n4nc(-c5ccc(Cl)cc5)nc4[nH]3)ccc21 [Example 42, 2-(4-Chlorophenyl)-5-(1-ethyl-1H-indazol-5-yl)-[1,2,4]triazolo[1,5-a]pyrimidin-7(4H)-one]
Cc1nc2[nH]c(-c3ccc4[nH]nnc4c3)cc(=O)n2n1 [Example 43, 5-(1H-Benzo[d][1,2,3]triazol-5-yl)-2-methyl-[1,2,4]triazolo[1,5-a]pyrimidin-7(4H)-one]
O=c1cc(-c2ccc3[nH]ncc3c2)[nH]c2nc(-c3ccc(Cl)cc3)nn12 [Example 44, 2-(4-Chlorophenyl)-5-(1H-indazol-5-yl)-[1,2,4]triazolo[1,5-a]pyrimidin-7(4H)-one]
O=c1cc(-c2ccc3[nH]nnc3c2)[nH]c2nc(Cc3ccccc3)nn12 [Example 45, 5-(1H-Benzo[d][1,2,3]triazol-5-yl)-2-benzyl-[1,2,4]triazolo[1,5-a]pyrimidin-7(4H)-one]
